Where two headings read alike, the source gives them in different places.
Experiments:
[1] = biological target: thyroxine antibodies immobilized within the pores of stainless steel cylindrical monoliths; assay: Scatchard plot evaluation of binding constant, stainless steel cylindrical monoliths; set-up: species or system rabbit; conditions: ambient temperature, overnight, shaking, cylindrical monolith, read-out: binding constant K (slope of Scatchard plot) (converted)
Description: The treated monoliths were combined with 3.0 ml of a stock solution (prepared as described below) of an immunoglobulin-enriched fraction of an antithyroxine antiserum per 100 g of monoliths dissolved in sufficient 0.1 M phosphate buffer solution (PBS) at pH 7.0 to insure complete submersion of the monoliths (the 3.0 ml of stock solution was equivalent to 0.3 mg of protein per monolith). A water aspirator vacuum was applied to the resulting mixture for a time sufficient to insure complete penetration of the liquid phase into the pores of the monoliths. The mixture then was maintained at 4° on a reciprocating shake table (Eberbach Corporation, Ann Arbor, Mich.) for 48 hours. […] If the bound and free antigen can be separated and the quantity bound measured, then the value of K can be determined by constructing a Scatchard plot; see, e.g., E. D. Day, "Advanced Immunochemistry", Williams & Wilkens Co., Baltimore, Md., 1972, pp. 118ff. Such a procedure is particularly suited to solid-phase immunoassay systems since the bound antigen is readily separated from the free or unbound antigen. The value of K for the monolith-thyroxine antibody complex was determined as follows. […] (3) Each tube was counted for one minute to obtain total counts. […]

[2] = biological target: thyroxine antibodies immobilized within the pores of stainless steel disc-shaped monoliths; assay: Scatchard plot evaluation of binding constant, stainless steel disc-shaped monoliths; set-up: species or system rabbit; conditions: total liquid volume 0.5 ml; disc-shaped monolith, 0.5 mg protein per monolith; read-out: binding constant K (Scatchard plot)
Description: The procedure of Example 1 was repeated, except that the cylindrical monoliths were replaced with 316 stainless steel discs 8 mm in diameter and 1.6 mm in thickness and the amount of protein per monolith was increased to 0.5 mg. Mean pore diameters were about 40μ and the total surface area of each disc was about 60 cm^2. In a random sampling of 10 discs, the average weight per disc was 0.330 g with a coefficient of variation of 0.3 percent. The discs were obtained as Stock No. S-2298 from Sintered Specialties, Janesville, Wisc. The Scatchard plot data were obtained using a total liquid volume of 0.5 ml per tube and serial dilutions of I^125 -labeled thyroxine from about 500,000 cpm to about 25,000 cpm.

SMILES: N[C@@H](Cc1cc(I)c(Oc2cc(I)c(O)c(I)c2)c(I)c1)C(=O)O [thyroxine]
- Kd ([1]; total reaction volume 0.5 ml): 0.175 nM
- Kd ([1]; total reaction volume 1.0 ml): 0.167 nM
- Kd [2]: 1 nM
